Reference: patent US20140343049A1, “DIHYDROFURAN DERIVATIVES AS INSECTICIDAL COMPOUNDS” (SYNGENTA PARTICIPATIONS AG, priority 2011, published 2014)

Legend:
Format in all cases: in vivo
[1] = tested on: Spodoptera littoralis (Egyptian cotton leafworm); test: Spodoptera littoralis cotton leaf disc spray test; conditions: foliar, 72 h, cotton leaf discs sprayed at 200 ppm, 5 L1 larvae, mortality, feeding behavior, growth regulation 3 days after treatment
From the text: Cotton leaf discs were placed on agar in a 24-well microtiter plate and sprayed with test solutions at an application rate of 200 ppm. After drying, the leaf discs were infested with 5 L1 larvae. The samples were checked for mortality, feeding behavior, and growth regulation 3 days after treatment (DAT).

[2] = tested on: Plutella xylostella (diamond back moth); test: Plutella xylostella L2 larvae test on artificial diet; conditions: 144 h, 200 ppm (concentration in well 18 ppm), 6 days, larval mortality and growth regulation
Method: (§1) 24-well microtiter plate (MTP) with artificial diet was treated with test solutions at an application rate of 200 ppm (concentration in well 18 ppm) by pipetting. After drying, the MTPs were infested with L2 larvae (7-12 per well). After an incubation period of 6 days, samples were checked for larval mortality and growth regulation.

[3] = tested on: Diabrotica balteata (corn root worm); test: Diabrotica balteata L2 larvae test on artificial diet; conditions: 120 h, 200 ppm (concentration in well 18 ppm), 5 days, larval mortality and growth regulation
Method: as §1, with “A 24-well” for “24-well”, “(6-10” for “(7-12”, “5” for “6”
as §1, with “A 24-well” for “24-well”, “12.5” for “200”, “MTP's” for “MTPs”, “(6-10” for “(7-12”, “5” for “6”

[4] = tested on: Heliothis virescens (tobacco budworm); test: Heliothis virescens egg test on artificial diet; conditions: 96 h, 200 ppm (concentration in well 18 ppm), eggs 0-24 h old, 4 days, egg mortality, larval mortality, growth regulation
Method: Eggs (0-24 h old) were placed in 24-well microtiter plate on artificial diet and treated with test solutions at an application rate of 200 ppm (concentration in well 18 ppm) by pipetting. After an incubation period of 4 days, samples were checked for egg mortality, larval mortality, and growth regulation.

[5] = tested on: Tetranychus urticae (two-spotted spider mite); test: Tetranychus urticae bean leaf disc spray test; conditions: foliar, 192 h, bean leaf discs sprayed at 200 ppm, mixed ages, egg, larval and adult mortality 8 days later
From the text: Bean leaf discs on agar in 24-well microtiter plates were sprayed with test solutions at an application rate of 200 ppm. After drying, the leaf discs are infested with mite populations of mixed ages. 8 days later, discs are checked for egg mortality, larval mortality, and adult mortality. […]

Measured: pest or weed control at 200 ppm

Cc1cc(C2=CC(c3cc(Cl)cc(Cl)c3)(C(F)(F)F)OC2)ccc1C(=O)NCC(F)(F)F (centres unmarked) [Compound A3]
≥ 80%: all assays above

COc1ccc(CNC(=O)c2ccc(C3=CC(c4cc(Cl)cc(Cl)c4)(C(F)(F)F)OC3)cc2C)cc1 (centres unmarked) [Compound A10]
not listed: [3]
≥ 80%: all other assays above

Cc1csc(NC(=O)c2ccc(C3=CC(c4cc(Cl)cc(Cl)c4)(C(F)(F)F)OC3)cc2C)n1 (centres unmarked) [Compound A11]
not listed: [3]
≥ 80%: all other assays above

Cc1cc(C2=CC(c3cc(Cl)cc(Cl)c3)(C(F)(F)F)OC2)ccc1C(=O)NC1(C)CSC1 (centres unmarked) [Compound A12]
not listed: [3]
≥ 80%: all other assays above

Cc1cc(C2=CC(c3cc(Cl)cc(Cl)c3)(C(F)(F)F)OC2)ccc1C(=O)NC1C[S+]([O-])C1 (centres unmarked) [Compound A13]
≥ 80%: [1] | [4] | [5]

Cc1cc(C2=CC(c3cc(Cl)cc(Cl)c3)(C(F)(F)F)OC2)ccc1C(=O)NC1CCC1 (centres unmarked) [Compound A14]
≥ 80%: [1] | [4] | [5]

Cc1cc(C2=CC(c3cc(Cl)cc(Cl)c3)(C(F)(F)F)OC2)ccc1C(=O)NCc1nc2ccccc2[nH]1 (centres unmarked) [Compound A18]
not listed: [1]
≥ 80%: all other assays above

CCC(CO)NC(=O)c1ccc(C2=CC(c3cc(Cl)cc(Cl)c3)(C(F)(F)F)OC2)cc1C (centres unmarked) [Compound A28]
≥ 80%: [1] | [5]

Cc1cc(C2=CC(c3cc(Cl)cc(Cl)c3)(C(F)(F)F)OC2)ccc1C(=O)NCc1cccnc1 (centres unmarked) [Compound A35]
≥ 80%: all assays above

Cc1cc(C2=CC(c3cc(Cl)cc(Cl)c3)(C(F)(F)F)OC2)ccc1C(=O)NC(C)c1ccccc1 (centres unmarked) [Compound A38]
not listed: [3]
≥ 80%: all other assays above

Cc1cc(C2=CC(c3cc(Cl)cc(Cl)c3)(C(F)(F)F)OC2)ccc1C(=O)NC1CC(C)(C)N(C)C(C)(C)C1 (centres unmarked) [Compound A40]
≥ 80%: [5]

Cc1cc(C2=CC(c3cc(Cl)cc(Cl)c3)(C(F)(F)F)OC2)ccc1C(=O)NCc1cccc(Cl)c1 (centres unmarked) [Compound A43]
≥ 80%: [1] | [3] | [5]

CC(=O)NCCNC(=O)c1ccc(C2=CC(c3cc(Cl)cc(Cl)c3)(C(F)(F)F)OC2)cc1C (centres unmarked) [Compound A45]
≥ 80%: [5]

Cc1cc(C2=CC(c3cc(Cl)cc(Cl)c3)(C(F)(F)F)OC2)ccc1C(=O)NCc1ccc(-n2cccn2)cc1 (centres unmarked) [Compound A46]
not listed: [1]
≥ 80%: all other assays above

Cc1cc(C2=CC(c3cc(Cl)cc(Cl)c3)(C(F)(F)F)OC2)ccc1C(=O)NCc1ccc(Cl)nc1 (centres unmarked) [Compound A52]
not listed: [3]
≥ 80%: all other assays above

Cc1cc(C2=CC(c3cc(Cl)cc(Cl)c3)(C(F)(F)F)OC2)ccc1C(=O)Nc1ccccc1Cl (centres unmarked) [Compound A56]
not listed: [1]
≥ 80%: all other assays above

COc1ccc(NC(=O)c2ccc(C3=CC(c4cc(Cl)cc(Cl)c4)(C(F)(F)F)OC3)cc2C)c(OC)c1 (centres unmarked) [Compound A58]
not listed: [1]
≥ 80%: all other assays above

CSc1ccccc1NC(=O)c1ccc(C2=CC(c3cc(Cl)cc(Cl)c3)(C(F)(F)F)OC2)cc1C (centres unmarked) [Compound A63]
≥ 80%: [2] | [3] | [5]

Cc1cc(C2=CC(c3cc(Cl)cc(Cl)c3)(C(F)(F)F)OC2)ccc1C(=O)Nc1ccc2ncsc2c1 (centres unmarked) [Compound A64]
not listed: [5]
≥ 80%: all other assays above

O=C(NCc1ccccc1)c1ccc(C2=CC(c3cc(Cl)cc(Cl)c3)(C(F)(F)F)OC2)nc1 (centres unmarked) [Compound B9]
≥ 80%: [2] | [5]

Cc1nc(C2=CC(c3cc(Cl)cc(Cl)c3)(C(F)(F)F)OC2)ccc1C(=O)NCC(F)(F)F (centres unmarked) [Compound C1]
not listed: [5]
≥ 80%: all other assays above

CCCCNC(=O)c1ccc(C2=CC(c3cc(Cl)cc(Cl)c3)(C(F)(F)F)OC2)nc1C (centres unmarked) [Compound C3]
not listed: [5]
≥ 80%: all other assays above

Cc1nc(C2=CC(c3cc(Cl)cc(Cl)c3)(C(F)(F)F)OC2)ccc1C(=O)NCc1ccccc1 (centres unmarked) [Compound C9]
not listed: [5]
≥ 80%: all other assays above

Cc1nc(C2=CC(c3cc(Cl)cc(Cl)c3)(C(F)(F)F)OC2)ccc1C(=O)NCc1ccccc1F (centres unmarked) [Compound C10]
not listed: [5]
≥ 80%: all other assays above

Cc1nc(C2=CC(c3cc(Cl)cc(Cl)c3)(C(F)(F)F)OC2)ccc1C(=O)NC(C)c1ccccc1 (centres unmarked) [Compound C11]
not listed: [5]
≥ 80%: all other assays above

COc1ccc(CNC(=O)c2ccc(C3=CC(c4cc(Cl)cc(Cl)c4)(C(F)(F)F)OC3)nc2C)cc1 (centres unmarked) [Compound C12]
not listed: [5]
≥ 80%: all other assays above

Cc1cc(C2=CC(c3cc(Cl)cc(Cl)c3)(C(F)(F)F)OC2=O)ccc1C(=O)NC1(C)CSC1 (centres unmarked) [Compound E16]
≥ 80%: [5]

O=C(NC1CS(=O)(=O)C1)c1ccc(C2=CC(c3cc(Cl)cc(Cl)c3)(C(F)(F)F)OC2)nc1Cl (centres unmarked) [Compound F2, 2-Chloro-6-[5-(3,5-dichloro-phenyl)-5-trifluoromethyl-2,5-dihydro-furan-3-yl]-N-(1,1-dioxo-1lambda*6*-thietan-3-yl)-nicotinamide]
not listed: [3]
≥ 80%: all other assays above

N#Cc1cc(C2=CC(c3cc(Cl)cc(Cl)c3)(C(F)(F)F)OC2)ccc1-n1cncn1 (centres unmarked) [Compound G1, 5-[5-(3,5-Dichloro-phenyl)-5-trifluoromethyl-2,5-dihydro-furan-3-yl]-2-[1,2,4]triazol-1-yl-benzonitrile]
not listed: [5]
≥ 80%: all other assays above
